{"source": "patent US20040158054A1", "about": "“Di-ribonucleotides as specific viral RNA-polymerase inhibitors for the treatment or prevention of viral infections” (priority 2003, published 2004)", "origin": "cited, not measured here", "key": {"[1]": {"test_system": "6-mercaptopurine-resistant cancer cell lines"}}}
{"smiles": "O=P(O)(OC[C@H]1O[C@@H](n2cnc3c(=S)[nH]cnc32)[C@H](O)[C@@H]1O)OC[C@H]1O[C@@H](n2cnc3c(=S)nc[nH]c32)[C@H](O)[C@@H]1O", "note": "[bis(thioinosine)-5′,5′-phosphate]", "values": [{"measurement": "fold more potent against neoplastic cells than 6-MP", "setting": "neoplastic cells; relative to 6-MP", "result": 240, "unit": "fold"}, {"measurement": "fold more potent against neoplastic cells than 6-MP riboside", "setting": "neoplastic cells; relative to 6-MP riboside", "result": 25, "unit": "fold"}, {"measurement": "inhibition of 6-mercaptopurine-resistant cancer cell lines", "setting": "[1]", "result": "inhibit"}]}
